Measurements taken from publication PMC8191578, “Targeting the TLR2 Receptor With a Novel Thymopentin-Derived Peptide Modulates Immune Responses” (Frontiers in Immunology, 2021).
Marks after values point to notes of the source that are not given here. Where no end group is shown, it is not given here.

How the values were obtained:
[1] = Ex vivo stability in human serum; assay type: in vitro ADME; conditions: human serum (Sigma), lipids removed by centrifugation, pre-incubated 15 min at 37°C, peptide 10 µg/mL, HPLC, logarithm-linear regression, mean ± SD, n=5
Description: Human serum was purchased from Sigma (St. Louis, MO, USA). […] The half-lives of CATH2, TP5, and CbTP (10 µg/mL) were evaluated in vitro following incubation at 37°C in human serum at different time points. The samples were collected into prechilled tubes containing 1 mL of acidic acetone (hydrochloric acid/acetone/H2O, 1:40:5, by volume) and centrifuged at 2,000 ×g for 20 min at 4°C.
The obtained precipitates were dried in vacuo, after which the dried precipitates were dissolved in 0.5 mL of 1 M acetic acid. The peptide analysis was carried out according to the protocol for the study of TP5 using HPLC ([26]). The half-lives of the target peptides were calculated by a logarithm-linear regression analysis of the peptide concentrations.

recombinant TLR2 = biological target: T1, recombinant TLR2 (Homo sapiens, UniProt O60603); test: Surface plasmon resonance binding to immobilized TLR2; conditions: SPR, ProteOn XPR36, GLH chip, 25°C, PBS with 1% Tween 20; CbTP 0-10 μM; 1:1 model; read-out: association rate constant Ka
T1 construct: purchased R&D Systems
Description: Surface plasmon resonance (SPR) experiments were performed using a ProteOn XPR36 instrument (Bio-Rad, Hercules, CA, USA) with a ProteOn GLH sensor chip (Bio-Rad) at 25°C. The running buffer (PBS with 1% Tween 20) was continuously passed into reaction chamber. An SPR sensing chip with recombinant TLR2 (R&D Systems, Minneapolis, MN, USA) was immobilized by amino coupling to capture CbTP, as described in the manufacturer’s protocol. The binding affinity of CbTP to the TLR2-covered surface was examined in varying concentrations of the CbTP peptide (0, 1.25, 2.5, 5, and 10 μM). The running buffer was injected into the empty channels as a reference. To regenerate the chip surface at the end of each experiment, 10 mM Gly-HCl buffer (pH 2.5) was injected. Data analysis was conducted using ProteOn manager software (version 2.0). The binding curves were processed for the start injection alignment and baseline. The reference-subtracted sensorgram was then fitted to the curves labeling a homogeneous 1:1 model and protein surface data were grouped together to fit the association (K a) and dissociation (K d) rate constants. The equilibrium dissociation constant (KD) for the peptide-TLR2 interaction was calculated using the following equation: […]

T1 sequence (O60603 21-784, species assumed): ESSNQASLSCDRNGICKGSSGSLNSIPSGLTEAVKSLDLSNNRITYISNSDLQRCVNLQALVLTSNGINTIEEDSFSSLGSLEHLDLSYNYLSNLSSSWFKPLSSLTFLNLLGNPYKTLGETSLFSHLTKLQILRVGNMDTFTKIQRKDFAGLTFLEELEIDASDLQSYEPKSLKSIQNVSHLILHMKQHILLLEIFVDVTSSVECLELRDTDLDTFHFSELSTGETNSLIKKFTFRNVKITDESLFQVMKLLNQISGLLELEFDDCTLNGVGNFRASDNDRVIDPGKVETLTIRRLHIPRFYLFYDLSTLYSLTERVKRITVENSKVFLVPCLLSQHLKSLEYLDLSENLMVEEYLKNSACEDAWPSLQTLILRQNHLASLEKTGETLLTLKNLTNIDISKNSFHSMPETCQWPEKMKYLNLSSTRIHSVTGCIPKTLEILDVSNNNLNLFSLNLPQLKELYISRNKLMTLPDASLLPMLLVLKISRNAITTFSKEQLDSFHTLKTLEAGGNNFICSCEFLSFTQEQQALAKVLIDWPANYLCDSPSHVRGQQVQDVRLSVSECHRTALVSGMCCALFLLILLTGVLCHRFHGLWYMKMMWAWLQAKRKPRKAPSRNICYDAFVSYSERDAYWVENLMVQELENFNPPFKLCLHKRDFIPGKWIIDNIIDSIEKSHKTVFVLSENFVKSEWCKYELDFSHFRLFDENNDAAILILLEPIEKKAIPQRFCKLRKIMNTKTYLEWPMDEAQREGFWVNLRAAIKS

| Sequence | t1/2 in human serum [1] | kon (recombinant TLR2) |
| --- | --- | --- |
| RFGRFLRKIRRFRPKVTITIQGSARFG [CATH2, Cathelicidin-2, reference compound] | 302 ± 34.5^a min | – |
| RFGRFLRKIRRFRRKDVY [CbTP] | 353 ± 41.3^a min | 3.61e+08 M⁻¹ s⁻¹ |
